In patent US20160090556A1, “PRODUCTS COMPRISING MALODOR REDUCTION MATERIALS” (The Procter & Gamble Company, priority 2014, published 2016):
Read-outs that look alike come from different tables or passages of the source.

Assay: Liquid dish neat product liquid-air partition coefficient
Assay type: physicochemical
Conditions: for Comment Code: Log of liquid dish neat product liquid-air partition coefficient: code letters K, L
[1] = class code letter within Comment Code

With `C=C1C2CCC(C)(C)C1CCC(OC)C2` (stereo not shown) [Material 7] the “Log of liquid dish neat product liquid-air partition coefficient (Comment Code K/L)” value (from here on “Log … (Comment Code K/L)”) [1] was “K (Log of liquid dish neat product liquid-air partition coefficient greater than or equal to −7)” and the “Comment Code: Log of liquid dish neat product liquid-air partition coefficient” value (shortened to “Comment Code: Log”) was “K (Log of liquid dish neat product liquid-air partition coefficient greater than or equal to −7)”.

In the case of `O=COCC=Cc1ccccc1` [Material 551], the “Log … (Comment Code K/L)” value [1] is reported as “K (Log of liquid dish neat product liquid-air partition coefficient greater than or equal to −7)”.

In the case of `OCCCc1ccccc1` [Material 254], the “Log … (Comment Code K/L)” value [1] is reported as “K (Log of liquid dish neat product liquid-air partition coefficient greater than or equal to −7)”.

In the case of `CC1(O)CCC2=C(CCCC2(C)C)C1` (stereo not shown) [Material 676], the “Log … (Comment Code K/L)” value is reported as “K (Log of liquid dish neat product liquid-air partition coefficient greater than or equal to −7)”.

With `CCC1=CCCC(C)(C)C12C=CC(C)O2` (stereo not shown) [Material 413] the “Log … (Comment Code K/L)” value [1] was “K (Log of liquid dish neat product liquid-air partition coefficient greater than or equal to −7)”.

For `COC(=O)C=Cc1ccccc1` [Material 117], the “Log … (Comment Code K/L)” value [1] was “K (Log of liquid dish neat product liquid-air partition coefficient greater than or equal to −7)”.

For `CCOC(=O)C1C(CC)=CCCC1(C)C` (stereo not shown) [Material 294], the “Log … (Comment Code K/L)” value [1] was “K (Log of liquid dish neat product liquid-air partition coefficient greater than or equal to −7)”.

In the case of `CC1C(C)(C)C2=C(C(=O)CCC2)C1(C)C` (stereo not shown) [Material 572], the “Log … (Comment Code K/L)” value is reported as “K (Log of liquid dish neat product liquid-air partition coefficient greater than or equal to −7)”.

In the case of `Cc1cccc(CCO)c1` [Material 928], the “Log … (Comment Code K/L)” value is reported as “K (Log of liquid dish neat product liquid-air partition coefficient greater than or equal to −7)”.

With `CC(=O)OCC=C(C)CCC=C(C)CCC=C(C)C` [Material 368] the “Log … (Comment Code K/L)” value [1] was “K (Log of liquid dish neat product liquid-air partition coefficient greater than or equal to −7)”.

For `CC(=O)CCc1ccc(O)cc1` [Material 1002], the “Comment Code: Log” value was “K (Log of liquid dish neat product liquid-air partition coefficient greater than or equal to −7)”.

With `CC=C(C)C(=O)OCCC=CCC` [Material 274] the “Log … (Comment Code K/L)” value [1] was “K (Log of liquid dish neat product liquid-air partition coefficient greater than or equal to −7)”.

With `C=CC(C)=CCC=C(C)CCC=C(C)C=O` [Material 691] the “Log … (Comment Code K/L)” value was “K (Log of liquid dish neat product liquid-air partition coefficient greater than or equal to −7)”.

With `C=CCCC(=O)C1=CCCC(C)(C)C1` [Material 697] the “Log … (Comment Code K/L)” value was “K (Log of liquid dish neat product liquid-air partition coefficient greater than or equal to −7)”.

For `O=C1CCCCCCCCCCCCCCCO1` [Material 277], the “Log … (Comment Code K/L)” value [1] was “K (Log of liquid dish neat product liquid-air partition coefficient greater than or equal to −7)”.

With `CCc1ccccc1CC(C)(C)C=O` [Material 354] the “Comment Code: Log” value was “K (Log of liquid dish neat product liquid-air partition coefficient greater than or equal to −7)”.

With `CCC(=O)OC1CC2CC1C1CC=CC21` (stereo not shown) [Material 919] the “Log … (Comment Code K/L)” value was “K (Log of liquid dish neat product liquid-air partition coefficient greater than or equal to −7)” and the “Comment Code: Log” value was “K (Log of liquid dish neat product liquid-air partition coefficient greater than or equal to −7)”.

For `CCC(=O)OCC=Cc1ccccc1` [Material 548], the “Log … (Comment Code K/L)” value [1] was “K (Log of liquid dish neat product liquid-air partition coefficient greater than or equal to −7)”.

In the case of `CCC(C)=CCCC(C)=CC#N` [Material 158], the “Log … (Comment Code K/L)” value [1] is reported as “K (Log of liquid dish neat product liquid-air partition coefficient greater than or equal to −7)”.

In the case of `CC(C)C1OCCC2(CC3CCC2(C)C3(C)C)O1` (stereo not shown) [Material 659], the “Log … (Comment Code K/L)” value is reported as “K (Log of liquid dish neat product liquid-air partition coefficient greater than or equal to −7)” and the “Comment Code: Log” value is reported as “K (Log of liquid dish neat product liquid-air partition coefficient greater than or equal to −7)”.

With `CCOC(=O)C=Cc1ccccc1` [Material 400] the “Comment Code: Log” value was “K (Log of liquid dish neat product liquid-air partition coefficient greater than or equal to −7)”.

For `C/C=C1/CC2CC1C1CCC(=O)OC21` (stereo not shown) [Material 353], the “Log … (Comment Code K/L)” value [1] was “K (Log of liquid dish neat product liquid-air partition coefficient greater than or equal to −7)” and the “Comment Code: Log” value was “K (Log of liquid dish neat product liquid-air partition coefficient greater than or equal to −7)”.

For `CC(C=O)Cc1cccc(C(C)(C)C)c1` (stereo not shown) [Material 134], the “Log … (Comment Code K/L)” value [1] was “K (Log of liquid dish neat product liquid-air partition coefficient greater than or equal to −7)”.

With `CC12CCC(C(=O)C1=O)C2(C)C` (stereo not shown) [Material 587] the “Log … (Comment Code K/L)” value was “K (Log of liquid dish neat product liquid-air partition coefficient greater than or equal to −7)”.

For `CC1OC(C)C2Cc3ccccc3C2O1` (stereo not shown) [Material 141], the “Log … (Comment Code K/L)” value [1] was “K (Log of liquid dish neat product liquid-air partition coefficient greater than or equal to −7)” and the “Comment Code: Log” value was “K (Log of liquid dish neat product liquid-air partition coefficient greater than or equal to −7)”.

With `O=C1CCCCCCCCCCCCCC1` [Material 480] the “Log … (Comment Code K/L)” value [1] was “K (Log of liquid dish neat product liquid-air partition coefficient greater than or equal to −7)”.

For `C=C(C)C1CC=C(C)C(O)C1` (stereo not shown) [Material 531], the “Log … (Comment Code K/L)” value [1] was “K (Log of liquid dish neat product liquid-air partition coefficient greater than or equal to −7)”.

For `CC(=O)OCC=Cc1ccccc1` [Material 553], the “Log … (Comment Code K/L)” value [1] was “K (Log of liquid dish neat product liquid-air partition coefficient greater than or equal to −7)”.

For `CC1=C(C/C=C(\C)C=O)C(C)(C)CCC1` [Material 602], the “Comment Code: Log” value was “K (Log of liquid dish neat product liquid-air partition coefficient greater than or equal to −7)”.

With `COC(Cc1ccccc1)OC` [Material 627] the “Log … (Comment Code K/L)” value was “K (Log of liquid dish neat product liquid-air partition coefficient greater than or equal to −7)” and the “Comment Code: Log” value was “K (Log of liquid dish neat product liquid-air partition coefficient greater than or equal to −7)”.

With `CCCCCCCCC=CC=O` [Material 828] the “Log … (Comment Code K/L)” value was “K (Log of liquid dish neat product liquid-air partition coefficient greater than or equal to −7)”.

In the case of `C[C@@H]1CC[C@H]2C(C)(C)[C@H]3C[C@@]12CC[C@@]3(C)O` [Material 569], the “Log … (Comment Code K/L)” value is reported as “K (Log of liquid dish neat product liquid-air partition coefficient greater than or equal to −7)” and the “Comment Code: Log” value is reported as “K (Log of liquid dish neat product liquid-air partition coefficient greater than or equal to −7)”.

In the case of `CCOC(C=C(C)CCC=C(C)C)OCC` [Material 521], the “Log … (Comment Code K/L)” value [1] is reported as “K (Log of liquid dish neat product liquid-air partition coefficient greater than or equal to −7)”.

With `CCCCCCCC1(C)OCC(C)O1` (stereo not shown) [Material 838] the “Comment Code: Log” value was “K (Log of liquid dish neat product liquid-air partition coefficient greater than or equal to −7)”.

In the case of `CC(C)=C1CCC2=CC(=O)CC(C)C2(C)C1` (stereo not shown) [Material 684], the “Log … (Comment Code K/L)” value is reported as “K (Log of liquid dish neat product liquid-air partition coefficient greater than or equal to −7)” and the “Comment Code: Log” value is reported as “K (Log of liquid dish neat product liquid-air partition coefficient greater than or equal to −7)”.

For `CC(C)=CCCC(C)=CCCC(C)=CCO` [Material 369], the “Log … (Comment Code K/L)” value [1] was “K (Log of liquid dish neat product liquid-air partition coefficient greater than or equal to −7)”.

For `C=CCOC(=O)COC1CCCCC1` [Material 918], the “Comment Code: Log” value was “K (Log of liquid dish neat product liquid-air partition coefficient greater than or equal to −7)”.

With `CCCCCCCCCCCC(=O)OCCC(C)C` [Material 238] the “Log … (Comment Code K/L)” value [1] was “K (Log of liquid dish neat product liquid-air partition coefficient greater than or equal to −7)”.

In the case of `CC=CC(=O)C1C(C)C=CCC1(C)C` (stereo not shown) [Material 466], the “Log … (Comment Code K/L)” value [1] is reported as “K (Log of liquid dish neat product liquid-air partition coefficient greater than or equal to −7)”.

With `C=CC(C)(CCC=C(C)C)OC(=O)CCC` (stereo not shown) [Material 151] the “Comment Code: Log” value was “K (Log of liquid dish neat product liquid-air partition coefficient greater than or equal to −7)”.

In the case of `CC(=O)[C@@]1(C)CC2=C(CCCC2(C)C)C[C@@H]1C` [Material 215], the “Log … (Comment Code K/L)” value [1] is reported as “K (Log of liquid dish neat product liquid-air partition coefficient greater than or equal to −7)” and the “Comment Code: Log” value is reported as “K (Log of liquid dish neat product liquid-air partition coefficient greater than or equal to −7)”.

For `C=CC(=C)CCC=C(C)CCC=C(C)C=O` [Material 613], the “Log … (Comment Code K/L)” value was “K (Log of liquid dish neat product liquid-air partition coefficient greater than or equal to −7)”.

In the case of `COCCOC(C)OCc1ccccc1` (stereo not shown) [Material 768], the “Log … (Comment Code K/L)” value is reported as “K (Log of liquid dish neat product liquid-air partition coefficient greater than or equal to −7)”.

For `CC(=O)C(C)=CC1C(C)=CCCC1(C)C` (stereo not shown) [Material 703], the “Comment Code: Log” value was “K (Log of liquid dish neat product liquid-air partition coefficient greater than or equal to −7)”.

With `CC(C)=CCCC(C)=CC1OCC(C)O1` (stereo not shown) [Material 519] the “Log … (Comment Code K/L)” value [1] was “K (Log of liquid dish neat product liquid-air partition coefficient greater than or equal to −7)”.

For `C=CCc1cc(OC)c2c(c1)OCO2` [Material 37], the “Log … (Comment Code K/L)” value [1] was “K (Log of liquid dish neat product liquid-air partition coefficient greater than or equal to −7)”.
